{"source": "patent US20060025419A1", "about": "“Imidazoquinoxaline compound for the treatment of melanoma” (priority 2004, published 2006)", "key": {"[1]": {"system": "mitochondria isolated from SK-Mel-5", "assay": "Cytochrome-c release from isolated mitochondria", "design": "species or system human", "settings": "10 μM, 4° C., 30 min", "procedure": "FIGS. 5A-5E. […] (FIG. 5A) Redistribution of Bcl-2 and Bax in mitochondria. […] Subcellular mitochondria and cytoplasm were prepared and subjected to Western blot analysis for Bcl-2 and Bax. (FIG. 5B) Dissipation of mitochondrial Δψm. […] After exposure, mitochondria were isolated and incubated with 80 μM 3,3′dihexyloxacarbocyanine iodide (DiOC6) at 37° C. for 15 min. Δψm was determined by FACS analysis using 484/530 nm filters within 10 min while gating the forward and sideward scatters on intact mitochondria (FIG. 5C). (FIG. 5D) Release of cytochrome-C and AIF. […] Subcellular extracts were prepared and subjected to Western blot analysis for cytochrome-C and AIF. […] The supernatant was assessed for cytochrome-c release. […]\nThe Mitochondria Isolation Kit (Pierce, Rockford, Ill.) was used for isolation of mitochondria from cultured melanoma cells according to the manufacture's instruction for the Reagent-based method. […] The purity of mitochondria was determined by Western blotting with β-actin, where β-actin negative preparation were fully to be pure. […]\nMitochondria play a crucial role in the regulation of programmed cell death (Zamzami et al., 1995a; 1995b; 1996a; 1996b). […] To investigate alteration of the apoptotic proteins in mitochondria during BMS-345541-induced apoptosis, the ratio of Bcl-2 and Bax distributed in mitochondria was analyzed in SK-Mel-5 cells using Western blot. […]"}, "[2]": {"system": "CXCL1", "assay": "CXCL1 ELISA of serum of mice bearing melanoma tumors", "assay_type": "in vivo", "procedure": "(§1) FIGS. 2A-2D. […] SK-Mel-5 cells were plated in 6-well plates (1.5×10^5 cells per well) and then cotransfected with 1 μg of HIV long terminal repeat NF-κB-luciferase vector and β-galactosidase vector DNA using Lipofectamine Plus reagent. Twenty-four hours after transfection, cells in duplicate plates were treated with 0, 0.1, 1 and 10 μM of BMS-345541in DMSO and incubated for an additional 36 h. Cell extract was prepared and luciferase activity was detected. Luciferase activity was normalized to β-galactosidase activity. […] ATP. The [γ-^32P]-labeled IκBα protein was visualized by autoradiography. […] The supernatants from B were cleared by centrifugation, or (FIG. 2D) sera were collected from mice, and subjected to ELISA assay for CXCL1 according to the manufacture's protocol. Data shown are from a representative data set from two experiments performed in duplicate (total n=4 for each point). For ELISA; the mean value is representative of serum samples from five mice.\nTo quantify the CXCL1 expression levels in vivo and in vitro, serum was collected at the end of the experiments from mice bearing SK-Mel-5 melanoma tumors or from the cleared supernatants of melanoma cell culture medium. Briefly, 1.5×10^5 of SK-Mel-5 cells/well were seeded in six-well plates in duplicate in DMEM/F12 medium containing 10% FBS."}, "[3]": {"target": "T1, IKK (Homo sapiens, UniProt O14920+O15111)", "T1 construct": "Equal aliquots of cytoplasmic IKK proteins were immunoprecipitated with anti-IKKα/β antibodies; endogenous in cells; host or cells: SK-Mel-5 human melanoma cells, cytoplasmic extract, immunoprecipitated on Protein A/G agarose beads", "T1 sequence (O14920 whole entry)": "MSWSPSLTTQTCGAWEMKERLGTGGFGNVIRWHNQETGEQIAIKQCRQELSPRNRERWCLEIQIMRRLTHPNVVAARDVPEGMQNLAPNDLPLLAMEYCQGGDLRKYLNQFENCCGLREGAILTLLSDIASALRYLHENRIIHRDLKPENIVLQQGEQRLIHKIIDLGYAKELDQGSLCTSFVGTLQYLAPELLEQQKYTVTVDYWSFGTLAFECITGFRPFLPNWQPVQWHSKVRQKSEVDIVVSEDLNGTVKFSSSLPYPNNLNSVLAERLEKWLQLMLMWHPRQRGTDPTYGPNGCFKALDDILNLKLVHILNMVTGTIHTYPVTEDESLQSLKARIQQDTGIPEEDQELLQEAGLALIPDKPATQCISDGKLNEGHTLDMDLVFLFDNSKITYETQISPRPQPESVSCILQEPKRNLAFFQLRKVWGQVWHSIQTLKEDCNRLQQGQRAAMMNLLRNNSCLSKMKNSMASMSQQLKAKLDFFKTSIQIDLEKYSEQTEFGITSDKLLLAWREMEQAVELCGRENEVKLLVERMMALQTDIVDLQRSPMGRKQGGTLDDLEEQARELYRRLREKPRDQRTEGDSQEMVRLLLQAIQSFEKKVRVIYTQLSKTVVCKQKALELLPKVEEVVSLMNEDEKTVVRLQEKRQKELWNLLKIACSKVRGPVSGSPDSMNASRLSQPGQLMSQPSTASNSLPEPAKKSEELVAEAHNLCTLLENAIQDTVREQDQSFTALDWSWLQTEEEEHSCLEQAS", "T1 sequence (O15111 whole entry)": "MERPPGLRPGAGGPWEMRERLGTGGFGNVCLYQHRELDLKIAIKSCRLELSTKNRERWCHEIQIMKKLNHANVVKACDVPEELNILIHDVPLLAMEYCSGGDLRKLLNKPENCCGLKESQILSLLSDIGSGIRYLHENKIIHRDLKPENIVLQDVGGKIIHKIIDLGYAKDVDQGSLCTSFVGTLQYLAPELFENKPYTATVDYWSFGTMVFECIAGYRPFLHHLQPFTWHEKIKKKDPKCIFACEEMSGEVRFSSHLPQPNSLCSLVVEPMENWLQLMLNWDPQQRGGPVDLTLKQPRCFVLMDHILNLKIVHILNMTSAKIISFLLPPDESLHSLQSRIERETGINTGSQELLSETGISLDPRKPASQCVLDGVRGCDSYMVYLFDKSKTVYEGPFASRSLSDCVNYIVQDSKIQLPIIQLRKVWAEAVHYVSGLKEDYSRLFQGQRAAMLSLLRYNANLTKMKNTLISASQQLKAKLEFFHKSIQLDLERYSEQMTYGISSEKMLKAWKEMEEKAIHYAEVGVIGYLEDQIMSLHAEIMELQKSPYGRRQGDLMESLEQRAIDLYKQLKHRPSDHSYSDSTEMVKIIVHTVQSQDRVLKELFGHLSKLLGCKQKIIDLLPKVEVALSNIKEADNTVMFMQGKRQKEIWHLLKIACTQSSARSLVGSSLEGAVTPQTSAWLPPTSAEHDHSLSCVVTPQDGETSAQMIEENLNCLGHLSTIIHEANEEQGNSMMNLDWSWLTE", "T1 sequence (Q9Y6K9 whole entry partner)": "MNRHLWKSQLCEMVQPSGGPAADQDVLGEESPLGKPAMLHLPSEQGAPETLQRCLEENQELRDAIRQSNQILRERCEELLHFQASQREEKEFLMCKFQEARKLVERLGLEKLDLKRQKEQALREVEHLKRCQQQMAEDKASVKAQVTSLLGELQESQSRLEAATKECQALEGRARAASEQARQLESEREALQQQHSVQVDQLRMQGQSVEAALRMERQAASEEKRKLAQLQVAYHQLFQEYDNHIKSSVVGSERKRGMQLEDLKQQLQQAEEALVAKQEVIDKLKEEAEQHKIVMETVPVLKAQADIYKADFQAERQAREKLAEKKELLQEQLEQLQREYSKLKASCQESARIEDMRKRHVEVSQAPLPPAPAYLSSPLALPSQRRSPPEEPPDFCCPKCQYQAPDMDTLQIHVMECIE", "assay": "IKK immunoprecipitation and in vitro kinase assay from treated SK-Mel-5 cells", "assay_type": "cell-based", "settings": "overnight (14 h) treatment, autoradiography (FIG. 2B)", "procedure": "as §1"}, "[4]": {"system": "NF-κB/p65", "assay": "Time-lapse microscopy of GFP-p65 translocation", "assay_type": "cell-based, human", "settings": "SK-Mel-5, 10 μM, 7 h observation", "quoted_text": "SK-Mel-5 cells (2×10^5 ) were cultured in 25 cm^2 culture flasks (Corning Inc., Corning, N.Y.) and transfected with 0.5 μg of GFP-p65 expression vector DNA for 14 h. […] The expression and localization of EGFP-p65 in live cells was recorded using time-lapse video microscopy (FIGS. 3A). The cytosolic and nuclear green fluorescent density was quantified by the Openlab software program (FIGS. 3B).\nTo test this possibility, SK-Mel-5 cells were transfected with a GFP-p65 expression vector to monitor the nuclear translocation in living cells. […] Time-lapse video microscopy was used to follow the localization of GFP-p65 in live cells. Images were captured at one-hour intervals over a 7 h observation period. The cytosol versus nuclear green fluorescent density was quantified by the Openlab software program."}, "[5]": {"system": "SK-Mel-5 cells", "assay": "Electron microscopy of cultured melanoma cells", "assay_type": "cell-based, human", "settings": "10 μM, 24 h"}, "[6]": {"system": "SK-Mel-5 cells", "assay": "TUNEL assay of cultured cells by flow cytometry", "assay_type": "cell-based, human", "settings": "36 h", "procedure": "FIGS. 4A-4H. […] Paraffin-embedded tumor tissues were subjected to H&E staining (FIGS. 4C & D) and DeadEnd Fluorometric TUNEL-assay for detection of apoptosis (FIGS. 4E & F). The TUNEL-positive cells are visualized in green fluorescence in a red (Propidium Iodide) background by fluorescence microscopy. […] After 36 h incubation, cells were collected and fixed with 1% formaldehyde and 70% ice-cold ethanol. The apoptotic cells were examined using TUNEL-assay and analyzed by flow cytometry through measuring fluorescein-12-dUTP at 520 nm. The apoptotic rate is indicated in each box. Data shown are represented one of three independent experiments. […] Cells were fixed and stained with Propidium iodide. Cell fluorescence was measured by flow cytometry and the data were analyzed using DNA content histogram deconvolution software (Multicycle from Phoenix Flow Systems). The percentage of apoptotic cells with fragmented DNA (PI intensity sub-G0/G1) is indicated at each time point. The experiments were repeated twice, in duplicates for each point (total n=4).\nIn melanoma, constitutive activation of NF-κB confers tumor survival capacity and escape from apoptosis (Richmond, 2002). […] Apoptotic cells were labeled using DeadEnd Fluorometric TUNEL reagent and analyzed by flow cytometry. […] Thirty-six hours after transfection, cells were collected, labeled with TUNEL reagent and analyzed by flow cytometry. […] Induction of DNA fragmentation, a hallmark of apoptosis, was evaluated by staining DNA with ethidium bromide followed by quantization by FACS analysis."}, "[7]": {"assay": "Body weight and tolerability in treated tumor-bearing mice", "assay_type": "in vivo"}, "[8]": {"system": "SK-Mel-5 cells", "assay": "Western blot / confocal analysis of apoptotic proteins in subcellular fractions", "assay_type": "cell-based, human", "settings": "10 μM", "quoted_text": "Subcellular mitochondria and cytoplasm were prepared and subjected to Western blot analysis for Bcl-2 and Bax. […] After exposure, mitochondria were isolated and incubated with 80 μM 3,3′dihexyloxacarbocyanine iodide (DiOC6) at 37° C. for 15 min. Δψm was determined by FACS analysis using 484/530 nm filters within 10 min while gating the forward and sideward scatters on intact mitochondria (FIG. 5C). […] Subcellular extracts were prepared and subjected to Western blot analysis for cytochrome-C and AIF. […] The supernatant was assessed for cytochrome-c release. 200 μM Ca^2+ was used as a positive control.\nThe cellular caspase-3 activity in samples was detected as described in Materials and Methods. […] Cells were fixed and stained with propidium iodide staining as described in FIG. 4H. The percentage of cell death was measured with flow cytometry. […] Cytosol was extracted and subjected to Western blot analysis for AIF, cytochrome-c (cyto-C) and actin. Actin was used as a loading control protein. […] Ref-1 was used as a nuclear marker protein. All data shown here were from three independent experiments. […] SK-Mel-5 cells were exposed to 10 μM BMS and/or pan-caspase inhibitor (Z-VAD-fmk, 50 μM).\nProteins from cell extracts were separated by 12% SDS-PAGE and electrophoretically transferred to nitrocellulose membranes. Nonspecific binding was blocked with 5% milk in TBST buffer (4 mM Tris base, 100 mM NaCl, pH 7.5, 0.05% Tween), incubated with the indicated primary antibodies with a dilution of 1:1000 at room temperature for 2 h or 4° C. for overnight and then with horseradish peroxidase-conjugated secondary antibody for 1 h. Blots were visualized by enhanced chemiluminescence assay.\nThe Mitochondria Isolation Kit (Pierce, Rockford, Ill.) was used for isolation of mitochondria from cultured melanoma cells according to the manufacture's instruction for the Reagent-based method. Briefly, cells (2×10^7) were collected, washed with PBS buffer and resuspended in 0.8 ml of Reagent A on ice for 2 min. 10 μl of Reagent B was added and samples were kept on ice, with vortexing very minute for 5 min. After addition of 0.8 ml of Reagent C, the mixture was centrifuged at 700×g for 10 min to remove the cell debris and nuclei. The supernatant was then centrifuged at 3,000×g for 15 min. The pellet (mitochondria) was washed with Reagent C. The purity of mitochondria was determined by Western blotting with β-actin, where β-actin negative preparation were fully to be pure. The supernatant (cytosolic fraction) was further cleared by centrifugation at 12,000×g for 15 min.\nCells were incubated with the anti-AIF polyclonal antibody for 2 h. Cells were washed twice and incubated with the secondary antibody conjugated with FITC for 1 h."}, "[9]": {"system": "15 other kinases including JNK, or mitogen-activated protein kinase-activated protein kinase 2", "settings": "cited from earlier work"}}, "data": [{"smiles": "Cc1ccc2nc(NCCN)c3ncc(C)n3c2c1.Cl", "note": "[BMS-345541, 4(2′-aminoethyl)amino-1,8-dimethylimidazo(1,2-a)quinoxaline]", "values": [{"measurement": "direct action on isolated mitochondria (cytochrome-c release into supernatant)", "setting": "[1]", "value": "no direct action"}, {"measurement": "CXCL1 expression in mouse sera", "setting": "[2]", "value": "suppressed in a concentration-dependent manner"}, {"measurement": "IKK activity in SK-Mel-5 melanoma cells", "setting": "[3]", "value": "reduced by BMS-345541 in a concentration-dependent fashion"}, {"measurement": "GFP-p65 localization", "setting": "[4]", "value": "consistently retained GFP-p65 in the cytoplasm"}, {"measurement": "morphology under electron microscopy", "setting": "[5]", "value": "typical feature of apoptosis"}, {"measurement": "increase in apoptotic cells vs vehicle (TUNEL)", "setting": "[6]; SK-Mel-5, 1.0 μM", "value": 2, "unit": "fold"}, {"measurement": "increase in apoptotic cells vs vehicle (TUNEL)", "setting": "[6]; SK-Mel-5, 10 μM", "value": 3.3, "unit": "fold"}, {"measurement": "increase in apoptotic cells vs vehicle (TUNEL)", "setting": "[6]; SK-Mel-5, 100 μM", "value": 4, "unit": "fold"}, {"measurement": "average loss of body weight", "setting": "[7]; 10 mg/kg orally once daily", "value": 5, "unit": "%"}, {"measurement": "average loss of body weight", "setting": "[7]; 25 mg/kg orally once daily", "value": 9, "unit": "%"}, {"measurement": "average loss of body weight", "setting": "[7]; 75 mg/kg orally once daily", "value": 14, "unit": "%"}, {"measurement": "tolerability in mice", "setting": "[7]; oral, once daily, 21 days", "value": "well tolerated"}, {"measurement": "time of cytochrome-c release into cytosol", "setting": "[8]", "value": 14, "unit": "h"}, {"measurement": "time of initiation of AIF release into cytosol", "setting": "[8]", "value": 4, "unit": "h"}, {"measurement": "release of pro-apoptotic molecules from mitochondria", "setting": "[8]; 24 h, Western blot", "value": "mitochondrial cytochrome-c release into the cytoplasm and AIF nuclear translocation"}, {"measurement": "effect on 15 other kinases", "setting": "[9]", "value": "failing to affect"}]}]}
